Results from US9849104B2 (Gemphire Therapuetics Inc., priority 2015, dated 2017).
Read-outs that look alike come from different tables or passages of the source.

Columns and labels:
[1] = Musculoskeletal adverse events, study A4141001; format: in vivo, human
[2] = male, Wistar, rat, in vivo, po, 10 mg/kg
Method: Dose solution was prepared by dissolving labeled drug in 0.45 mL ethanol and 4.05 mL 0.5% methylcellulose in water. […] Final specific activity of dose solution was 10.37 μCi/mg.
Male Wistar rats with an average weight of 202 g were fasted overnight prior to dosing. […] Carcasses were rapidly frozen in dry ice/hexane mixture and prepared for whole body sectioning and autoradiography. Sections of 50 μm thickness were air dried at −20° C. and applied to BioMax scientific imaging film (Eastman Kodak, Rochester, N.Y.) or phosphor imaging plates for autoradiographic exposure (Molecular Dynamics, Sunnyvale, Calif.). Carbon-14 standards (American Radiolabeled Chemicals, St. Louis) were included on representative films and plates for calibration of the analyzer. Processed films were digitized with the analyzer scanner (Loats INQUIRY image analysis system, Loats Associates, Westminster, Md.), and radioactivity remaining in tissues was determined by quantitative video densitometric analysis of digital images. Imaging plates were scanned after 1-week exposure. Resulting electronic images were used for preliminary evaluation of distribution.

[3] = system: STAM model of non-alcoholic steatohepatitis (NASH)
Method: Telmisartan (Micardis®) was purchased from Boehringer Ingelheim GmbH (Germany) and dissolved in pure water.
Telmisartan was administered at a dose of 10 mg/kg once daily.
Eight-hour fasting blood glucose was measured in whole blood using Life Check (EIDIA Co. Ltd., Japan). For plasma biochemistry, eight-hour fasting blood was collected in polypropylene tubes with anticoagulant (Novo-Heparin, Mochida Pharmaceutical, Japan) and centrifuged at 1,000×g for 15 minutes at 4° C. The supernatant was collected and stored at −80° C. until use. Plasma insulin levels were quantified by Ultra Sensitive Mouse Insulin ELISA kit (Morinaga Institute of Biological Science, Inc., Japan).
On the day of termination, non-fasting blood glucose was measured in whole blood using Life Check. For plasma biochemistry, non-fasting blood was collected in polypropylene tubes with anticoagulant (Novo-Heparin) and centrifuged at 1,000×g for 15 minutes at 4° C. The supernatant was collected and stored at −80° C. until use. Plasma ALT, AST, ALP, GGT, BUN, creatinine and total bilirubin levels were measured by FUJI DRI-CHEM 7000 (Fujifilm Corporation, Japan). Plasma ketone body levels were quantified by EnzyChrom™ Ketone Body Assay Kit (BioAssay Systems, USA).
Liver samples were homogenized in chloroform-methanol (2:1, v/v) and incubated overnight at room temperature. After washing with chloroform-methanol-water (8:4:3, v/v/v), the extracts were evaporated to dryness, and dissolved in isopropanol. Liver triglyceride content was measured by Triglyceride E-test (Wako Pure Chemical Industries). […]
Statistical analyses were performed using Bonferroni Multiple Comparison Test on GraphPad Prism 6 (GraphPad Software Inc., USA). […] Results were expressed as mean±SD.
The viability, clinical signs and behavior were monitored daily. Body weight was recorded before the treatment. […] The animals were sacrificed by exsanguinations through direct cardiac puncture under isoflurane anesthesia (Pfizer Inc.) at 9 weeks of age.

[4] = A4141001, patient type IIa + IIb

CC(C)c1c(C(=O)Nc2ccccc2)c(-c2ccccc2)c(-c2ccc(F)cc2)n1CC[C@@H](O)C[C@@H](O)CC(=O)O [Atorvastatin, reference compound]
% = the percent of patients experiencing a musculoskeletal adverse event ([1]; A4141001, patient type IIa): 9.1% | No = the number of muscle skeletal adverse events ([1]; A4141001, patient type IIa): 2 | % = the percent of patients experiencing a musculoskeletal adverse event [1, 4]: 13.5% | No = the number of muscle skeletal adverse events [1, 4]: 7 | % = the percent of patients experiencing a musculoskeletal adverse event ([1]; A4141001, patient type IIb): 16.7% | No = the number of muscle skeletal adverse events ([1]; A4141001, patient type IIb): 5

CC(C)(CCCCOCCCCC(C)(C)C(=O)O)C(=O)O [[14C] gemcabene]
radioequivalents remaining in Adrenal ([2]; 1 h): 6.05 μg equivalents/g | radioequivalents remaining in Blood ([2]; 1 h): 15.46 μg equivalents/g | radioequivalents remaining in Brain ([2]; 1 h): 0.41 μg equivalents/g | radioequivalents remaining in Kidney ([2]; 1 h): 18.75 μg equivalents/g | radioequivalents remaining in Liver ([2]; 1 h): 35.78 μg equivalents/g | radioequivalents remaining in Lung ([2]; 1 h): 11.69 μg equivalents/g | radioequivalents remaining in Muscle ([2]; 1 h): 1.35 μg equivalents/g | radioequivalents remaining in Adrenal ([2]; 4 h): 4.76 μg equivalents/g | radioequivalents remaining in Blood ([2]; 4 h): 13.65 μg equivalents/g | radioequivalents remaining in Brain ([2]; 4 h): 0.47 μg equivalents/g | radioequivalents remaining in Kidney ([2]; 4 h): 17.84 μg equivalents/g | radioequivalents remaining in Liver ([2]; 4 h): 37.08 μg equivalents/g | radioequivalents remaining in Lung ([2]; 4 h): 10.15 μg equivalents/g | radioequivalents remaining in Muscle ([2]; 4 h): 1.40 μg equivalents/g | radioequivalents remaining in Adrenal ([2]; 8 h): 4.29 μg equivalents/g | radioequivalents remaining in Blood ([2]; 8 h): 9.75 μg equivalents/g | radioequivalents remaining in Brain ([2]; 8 h): 0.43 μg equivalents/g | radioequivalents remaining in Kidney ([2]; 8 h): 16.44 μg equivalents/g | radioequivalents remaining in Liver ([2]; 8 h): 27.42 μg equivalents/g | radioequivalents remaining in Lung ([2]; 8 h): 7.59 μg equivalents/g | radioequivalents remaining in Muscle ([2]; 8 h): 0.99 μg equivalents/g | radioequivalents remaining in Adrenal ([2]; 24 h): 1.42 μg equivalents/g | radioequivalents remaining in Blood ([2]; 24 h): 4.69 μg equivalents/g | radioequivalents remaining in Brain ([2]; 24 h): 0.24 μg equivalents/g | radioequivalents remaining in Kidney ([2]; 24 h): 17.45 μg equivalents/g | radioequivalents remaining in Liver ([2]; 24 h): 24.35 μg equivalents/g | radioequivalents remaining in Lung ([2]; 24 h): 3.58 μg equivalents/g | radioequivalents remaining in Muscle ([2]; 24 h): 0.45 μg equivalents/g | radioequivalents remaining in Adrenal ([2]; 48 h): 0.22 μg equivalents/g | radioequivalents remaining in Blood ([2]; 48 h): 0.44 μg equivalents/g | radioequivalents remaining in Kidney ([2]; 48 h): 7.23 μg equivalents/g | radioequivalents remaining in Liver ([2]; 48 h): 3.64 μg equivalents/g | radioequivalents remaining in Lung ([2]; 48 h): 0.36 μg equivalents/g | radioequivalents remaining in Kidney ([2]; 96 h): 0.83 μg equivalents/g | radioequivalents remaining in Liver ([2]; 96 h): 0.24 μg equivalents/g

CCCc1nc2c(C)cc(-c3nc4ccccc4n3C)cc2n1Cc1ccc(-c2ccccc2C(=O)O)cc1 [Telmisartan, reference compound]
NAFLD Activity score, NAS (mean ± SD) ([3]; STAM NASH mice, 10 mg/kg PO QD 6-9 wks, 10 mg/kg): significant reduction | mortality during the treatment period ([3]; STAM NASH mice, 10 mg/kg PO QD, before reaching Day 21): one mouse was found dead | Fasting blood glucose (mean ± SD) ([3]; STAM NASH mice, 10 mg/kg PO QD, Day 18, 8 hours of fasting, listed as telemisartan, 10 mg/kg): significant increase | Liver triglyceride (mean ± SD) ([3]; STAM NASH mice, 10 mg/kg PO QD, Day 21, listed as telemisartan, 10 mg/kg): significant decrease | Non-fasting blood glucose (mean ± SD) ([3]; STAM NASH mice, 10 mg/kg PO QD, termination (Day 21), listed as telemisartan, 10 mg/kg): significant increase | fibrosis area compared with the Vehicle in NASH group ([3]; STAM NASH mice, all treatment groups (gemcabene 30, 100, 300 mg/kg; telmisartan 10 mg/kg)): significantly decreased | Plasma ALP (mean ± SD) ([3]; mouse, in vivo, po, 10 mg/kg): significant increases | Plasma BUN (mean ± SD) ([3]; mouse, in vivo, po, 10 mg/kg): significant increase | Plasma GGT (mean ± SD) ([3]; mouse, in vivo, po, 10 mg/kg): 1 ± 0 U/L | Plasma creatinine (mean ± SD) ([3]; mouse, in vivo, po, 10 mg/kg): 0.1 ± 0.0 mg/dL
